This passage reports EC50 and Activity results from ChEMBL document CHEMBL5338813 (J Med Chem, 2023).

The subject of data set [1] is Cryptosporidium parvum. As to the kind of experiment: Antiparasitic activity against Cryptosporidium parvum infected in human HCT-8 cells assessed as parasitic growth inhibition incubated for 48 hrs by fluorescence microscopic analysis. It counts as functional, organism-based. To be noted: HCT-8, 48 h.
Data set [2] has as its system HCT-8. The experiment in a line: Cytotoxicity against human HCT-8 cells assessed as reduction in cell number upto 50 uM incubated for 48 hrs by. To be noted: hct-8, 48 h. It counts as toxicity, cell-based.

A word on the EC50: it is the concentration that produces a half-maximal response. In the case of `O=C(Cc1ccc(O)cc1)N1CCN(c2ccc3nncn3n2)CC1`, the EC50 in data set [1] is above 50 µM. In addition, the Activity entry in data set [2] is recorded as “Non-Toxic”. On the same counts, the results for `O=C(Cc1ccc(C(F)(F)F)cc1)N1CCN(c2ccc3nncn3n2)CC1` are 5.5 µM and “Non-Toxic”. Turning to `O=C(Cc1c(Cl)cccc1Cl)N1CCN(c2ccc3nncn3n2)CC1`, the concentration for a half-maximal effect (EC50) in data set [1] was above 25 µM. For the same compound, the Activity entry in data set [2] is on record as “Non-Toxic”. `O=C(Cc1cccc([N+](=O)[O-])c1)N1CCN(c2ccc3nncn3n2)CC1`: the EC50 in data set [1] worked out at 18 µM. In addition, the Activity result in data set [2] is “Non-Toxic”. Turning to `O=C(Cc1cc(Cl)cc(C(F)(F)F)c1)N1CCN(c2ccc3nncn3n2)CC1`, in data set [1], the EC50 was 0.41 µM. Moreover, the Activity result in data set [2] is listed as “Non-Toxic”. Turning to `O=C(Cc1cccc(S(F)(F)(F)(F)F)c1)N1CCN(c2ccc3nncn3n2)CC1`, the EC50 in data set [1] stood at 1.1 µM. Also, the Activity result in data set [2] is listed as “Non-Toxic”. For the compound `O=C(Cc1ccc(F)cc1)N1CCN(c2ccc3nncn3n2)CC1`, in data set [2], the Activity entry is “Non-Toxic”. On to `O=C(Cc1ccc(C(F)(F)F)c(F)c1)N1CCN(c2ccc3nncn3n2)CC1`, for which the EC50 in data set [1] is 2 µM. In data set [2], the Activity result was “Non-Toxic”. For the compound `O=C(Cc1ccc(CO)cc1)N1CCN(c2ccc3nncn3n2)CC1`, in data set [1], the EC50 was above 25 µM. Besides, the Activity result in data set [2] is listed as “Non-Toxic”. `O=C(Cc1ccc(F)c(Br)c1)N1CCN(c2ccc3nncn3n2)CC1`: in data set [1], the EC50 was 0.23 µM. Besides, in data set [2], the Activity entry is “Non-Toxic”. In the case of `Cc1ccc(CC(=O)N2CCN(c3ccc4nncn4n3)CC2)cc1F`, in data set [1], the EC50 was 5.3 µM. In data set [2], the Activity result is “Non-Toxic”. For the compound `O=C(Cc1ccc(O)c(F)c1)N1CCN(c2ccc3nncn3n2)CC1`, in data set [1], the concentration for a half-maximal effect (EC50) worked out at 53 µM. Besides, the Activity result in data set [2] is recorded as “Non-Toxic”. Regarding `O=C(Cc1ccc(Cl)c(Br)c1)N1CCN(c2ccc3nncn3n2)CC1`, the EC50 in data set [1] turned out to be 0.12 µM. The Activity result in data set [2] is given as “Non-Toxic”. As to `O=C(Cc1ccc(C(F)(F)F)c(Cl)c1)N1CCN(c2ccc3nncn3n2)CC1`, the EC50 in data set [1] amounted to 0.34 µM. For the same compound, in data set [2], the Activity result is reported as “Non-Toxic”.

Consider `O=C(Cc1ccc(S(F)(F)(F)(F)F)cc1)N1CCN(c2ccc3nncn3n2)CC1`, for which the EC50 in data set [1] is 12 µM. The Activity entry in data set [2] was “Non-Toxic”. As to `COc1ccc(CC(=O)N2CCN(c3ccc4nncn4n3)CC2)cc1F`, the EC50 in data set [1] was determined as 12 µM. Besides, the Activity result in data set [2] is “Non-Toxic”. In the same order, the values of `O=C(Cc1ccc(F)c(O)c1)N1CCN(c2ccc3nncn3n2)CC1` are above 50 µM and “Non-Toxic”.

Turning to `O=C(Cc1cccc(F)c1)N1CCN(c2ccc3nncn3n2)CC1`, the EC50 in data set [1] came to 14 µM. For the same compound, the Activity result in data set [2] is on record as “Non-Toxic”. In the case of `O=C(Cc1ccc(Cl)c(C(F)(F)F)c1)N1CCN(c2ccc3nncn3n2)CC1`, in data set [1], the EC50 is 0.27 µM. Besides, in data set [2], the Activity entry is reported as “Non-Toxic”. In the same order, the values of `O=C(Cc1cccc(C(F)(F)F)c1)N1CCN(c2ccc3nncn3n2)CC1` are 1.1 µM and “Non-Toxic”. Turning to `O=C(Cc1ccccc1Br)N1CCN(c2ccc3nncn3n2)CC1`, the EC50 in data set [1] was above 50 µM. The Activity result in data set [2] is “Non-Toxic”. As for `O=C(Cc1cccc(Cl)c1Cl)N1CCN(c2ccc3nncn3n2)CC1`, the EC50 in data set [1] was above 25 µM. In addition, in data set [2], the Activity result is reported as “Non-Toxic”. Regarding `O=C(Cc1cccc(Cl)c1)N1CCN(c2ccc3nncn3n2)CC1`, the Activity result in data set [2] is listed as “Non-Toxic”.

Consider `N#Cc1ccc(CC(=O)N2CCN(c3ccc4nncn4n3)CC2)cc1`, for which the Activity result in data set [2] was “Non-Toxic”.

In the case of `O=C(Cc1ccc([N+](=O)[O-])cc1)N1CCN(c2ccc3nncn3n2)CC1`, in data set [2], the Activity result was “Non-Toxic”. The same measure, in the same setting: to `COc1ccc(CC(=O)N2CCN(c3ccc4nncn4n3)CC2)cc1` belongs “Non-Toxic”; to `COc1cccc(CC(=O)N2CCN(c3ccc4nncn4n3)CC2)c1`, “Non-Toxic”; to `O=C(Cc1ccc(Cl)cc1)N1CCN(c2ccc3nncn3n2)CC1`, “Non-Toxic”.
